Results: PMC9719519, “Non-classical ferroptosis inhibition by a small molecule targeting PHB2” (Nature Communications, 2022)

Target: prohibitin 2 (PHB2) (Homo sapiens, UniProt Q99623)
Assay: diazirine photoaffinity labelling (UV […] nm) with pull-down/western blot; DARTS
Format: cell-based
Parameters: endogenous PHB2 in ES-2 cells

Sequence of prohibitin 2 (PHB2) (Q99623 2-299): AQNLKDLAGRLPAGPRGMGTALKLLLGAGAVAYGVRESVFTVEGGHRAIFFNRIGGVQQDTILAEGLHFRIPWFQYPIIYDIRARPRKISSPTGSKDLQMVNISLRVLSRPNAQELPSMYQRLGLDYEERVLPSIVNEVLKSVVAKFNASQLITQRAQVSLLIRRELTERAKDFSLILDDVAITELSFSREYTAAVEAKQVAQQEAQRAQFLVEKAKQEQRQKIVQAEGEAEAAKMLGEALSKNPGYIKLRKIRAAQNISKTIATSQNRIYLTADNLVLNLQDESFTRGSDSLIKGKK

Question: C#CCCC1(CC(=O)N2CCC(n3cc(-c4cn5cc(-c6ccccc6)nc5c(C5=CCOCC5)n4)cn3)CC2)N=N1 [YL-939-1] was tested. Which “diazirine photoaffinity labelling (UV 365 nm) with pull-down/western blot; DARTS” value did it give?
Answer: revealed that only PHB2 protein could be pulled down by the probe (Fig. 4D)
